Where two headings read alike, the source gives them in different places.
Legend:
KRas G12C mutant = target: T1, KRas G12C mutant (Homo sapiens, UniProt P01116, G12C); test: Ras GTP binding domain inhibition assay (labeled-GTP competition, cell-free)
T1 construct: made in house
Method in brief: (§1)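 First, the His-tagged protein was captured overnight at 4° C on nickel wells. Second, compound was applied at 20 μM or as a dilution series for IC50 over 3 h. Third, 100 nM Cy3- or Cy5-GTP was added for 45 min. Finally, wells were washed and bound label quantified.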

KRas G12D mutant = target: T2, KRas G12D mutant (Homo sapiens, UniProt P01116, G12D); test: as above
T2 construct: made in house
Method in brief: as §1

KRas Q61H mutant = target: T3, KRas Q61H mutant (Homo sapiens, UniProt P01116, Q61H); test: as above
T3 construct: made in house
Method in brief: as §1

[1] = tested on: Akt phosphorylation in Panc-1 cells; test: Western AKT cell-based phosphorylation assay; set-up: species or system human; conditions: at 10 μM, values in brackets < > are activation %, not inhibition
Method in brief: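 Phospho-Akt (Ser473) western blot of Panc-1 lysates, with Ponceau S to confirm uniform loading. Before lysis, cells were serum-starved overnight (0.5% FBS), incubated 6 h at 37° C with 10 μM compound in 0.3% DMSO and stimulated 15 min with 1.5 ng/ml EGF.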

[2] = with SOS, read-out: KRas G12C mutant + SOS: % inh.
[3] = without SOS, read-out: KRas G12C mutant: % inh.
[4] = with SOS, read-out: KRas G12D mutant + SOS: % inh.
[5] = without SOS, read-out: KRas G12D mutant: % inh.
[6] = with SOS, read-out: KRas Q61H mutant + SOS: % inh.
[7] = without SOS, read-out: KRas Q61H mutant: % inh.

SMILES | inhibition at 20 µM (KRas G12C mutant; [2]) [%] | inhibition at 20 µM (KRas G12C mutant; [3]) [%] | inhibition at 20 µM (KRas G12D mutant; [4]) [%] | inhibition at 20 µM (KRas G12D mutant; [5]) [%] | inhibition at 20 µM (KRas Q61H mutant; [6]) [%] | inhibition at 20 µM (KRas Q61H mutant; [7]) [%] | IC50 (KRas Q61H mutant; with SOS) [µM] | % inh of AKT phosphorylation in PANC-1 [1]
COC1CCCN(c2nc(-c3nccn3C)nc3sc(-c4ccn(C(C)C)n4)c(C)c23)C1 (racemic) [Compound 40, rac-6-(1-Isopropyl-1H-pyrazol-3-yl)-4-(3-methoxypiperidin-1-yl)-5-methyl-2-(1-methyl-1H-imidazol-2-yl)thieno[2,3-d]pyrimidine] | 76 to 100 | 51 to 75 | 26 to 50 | 26 to 50 | 76 to 100 | 51 to 75 |  | D (76-100% inhibition)
Cc1c(-c2ccn(C(C)C)n2)sc2nc(-c3nccn3C)nc(NC3CCOC3)c12 (racemic) [Compound 37, rac-6-(1-Isopropyl-1H-pyrazol-3-yl)-5-methyl-2-(1-methyl-1H-imidazol-2-yl)-N-(tetrahydrofuran-3-yl)thieno[2,3-d]pyrimidin-4-amine] | 76 to 100 | 76 to 100 | 76 to 100 | 76 to 100 | 76 to 100 | 76 to 100 |  | 0 (0% inhibition)
COC1CCN(c2nc(-c3nccn3C)nc3sc(-c4ccn(C(C)C)n4)c(C)c23)C1 (racemic) [Compound 34, rac-6-(1-Isopropyl-1H-pyrazol-3-yl)-4-(3-methoxypyrrolidin-1-yl)-5-methyl-2-(1-methyl-1H-imidazol-2-yl)thieno[2,3-d]pyrimidine] | 76 to 100 | 76 to 100 | 76 to 100 | 76 to 100 | 76 to 100 | 76 to 100 |  | 0 (0% inhibition)
COCCn1ccnc1-c1nc(N[C@H]2C[C@@H](OC)C2)c2ccsc2n1 [Compound 9, N-((1s,3s)-3-Methoxycyclobutyl)-2-(1-(2-methoxyethyl)-1H-imidazol-2-yl)thieno[2,3-d]pyrimidin-4-amine] | 76 to 100 | 76 to 100 | 76 to 100 | 51 to 75 | 76 to 100 | 76 to 100 | 5 to 10 | 0 (0% inhibition)
O=C(Nc1ccccn1)c1nc(O)c2scc(-c3ccccn3)c2n1 [Compound 24, 4-Hydroxy-N,7-di(pyridin-2-yl)thieno[3,2-d]pyrimidine-2-carboxamide] | 1 to 25 | 1 to 25 | 0 | 1 to 25 | 0 | 1 to 25 | > 10 | 0 (0% inhibition)
O=C(c1nc(O)c2scc(-c3ccccn3)c2n1)N1CCOCC1 [Compound 22, (4-Hydroxy-7-(pyridin-2-yl)thieno[3,2-d]pyrimidin-2-yl)(morpholino)methanone] | 0 | 1 to 25 | 0 | 1 to 25 | 1 to 25 | 1 to 25 | > 10 | 0 (0% inhibition)
CO[C@H]1CC[C@@H](Nc2nc(C(N)=O)nc3sccc23)C1 (racemic) [Compound 11, Rac-4-(((1R,3S)-3-methoxycyclopentyl)amino)thieno[2,3-d]pyrimidine-2-carboxamide] | 1 to 25 | 1 to 25 | 0 | 1 to 25 | 0 | 0 | > 10 | 0 (0% inhibition)
CO[C@H]1CC[C@@H](Nc2nc(C(N)=O)nc3sc(-c4ccn(C(C)C)n4)cc23)C1 (racemic) [Compound 17, Rac-6-(1-isopropyl-1H-pyrazol-3-yl)-4-(((1R,3S)-3-methoxycyclopentyl)amino)thieno[2,3-d]pyrimidine-2-carboxamide] | 0 | 0 | 0 | 0 | 0 | 1 to 25 | > 10 | 0 (0% inhibition)
O=C(Nc1ccccc1)c1nc(O)c2scc(-c3ccccn3)c2n1 [Compound 23, 4-Hydroxy-N-phenyl-7-(pyridin-2-yl)thieno[3,2-d]pyrimidine-2-carboxamide] | 0 | 1 to 25 | 1 to 25 | 1 to 25 | 1 to 25 | 0 | > 10 | 0 (0% inhibition)
COCC1COCCN1c1nc(-c2nccn2C)nc2sc(-c3ccn(C(C)C)n3)c(C)c12 (racemic) [Compound 41, rac-4-(6-(1-Isopropyl-1H-pyrazol-3-yl)-5-methyl-2-(1-methyl-1H-imidazol-2-yl)thieno[2,3-d]pyrimidin-4-yl)-3-(methoxymethyl)morpholine] | 51 to 75 | 51 to 75 | 26 to 50 | 0 | 26 to 50 | 51 to 75 |  | 0 (0% inhibition)

Continued, in another order:

inhibition at 20 µM (KRas G12C mutant; [2]) [%] | inhibition at 20 µM (KRas G12C mutant; [3]) [%] | inhibition at 20 µM (KRas G12D mutant; [4]) [%] | inhibition at 20 µM (KRas G12D mutant; [5]) [%] | inhibition at 20 µM (KRas Q61H mutant; [6]) [%] | inhibition at 20 µM (KRas Q61H mutant; [7]) [%] | IC50 (KRas Q61H mutant; with SOS) [µM] | SMILES | % inh of AKT phosphorylation in PANC-1 [1]
76 to 100 | 51 to 75 | 51 to 75 | 51 to 75 | 76 to 100 | 51 to 75 |  | CO[C@H]1C[C@@H](CNc2nc(-c3nccn3C)nc3sc(-c4ccn(C(C)C)n4)c(C)c23)C1 [Compound 47, 6-(1-Isopropyl-1H-pyrazol-3-yl)-N-(((1s,3s)-3-methoxycyclobutyl)methyl)-5-methyl-2-(1-methyl-1H-imidazol-2-yl)thieno[2,3-d]pyrimidin-4-amine] | 0 (0% inhibition)
51 to 75 | 51 to 75 | 51 to 75 | 51 to 75 | 51 to 75 | 51 to 75 |  | CC(C)OCCn1ccnc1-c1nc(O)c2scc(-c3ccccn3)c2n1 [Compound 82, 2-(1-(2-Isopropoxyethyl)-1H-imidazol-2-yl)-7-(pyridin-2-yl)thieno[3,2-d]pyrimidin-4-ol] | <D>
26 to 50 | 26 to 50 | 1 to 25 | 0 | 51 to 75 | 26 to 50 |  | COCC1CCN(c2nc(-c3ccccn3)nc3sc(-c4ccn(C(C)C)n4)c(C)c23)C1 (racemic) [Compound 71, Rac-6-(1-Isopropyl-1H-pyrazol-3-yl)-4-(3-(methoxymethyl)pyrrolidin-1-yl)-5-methyl-2-(pyridin-2-yl)thieno[2,3-d]pyrimidine] | D (76-100% inhibition)
76 to 100 | 51 to 75 | 76 to 100 | 76 to 100 | 76 to 100 | 76 to 100 |  | COCC1CN(c2nc(-c3nccn3C)nc3sc(-c4ccn(C(C)C)n4)c(C)c23)CCO1 (racemic) [Compound 45, rac-4-(6-(1-Isopropyl-1H-pyrazol-3-yl)-5-methyl-2-(1-methyl-1H-imidazol-2-yl)thieno[2,3-d]pyrimidin-4-yl)-2-(methoxymethyl)morpholine] | <D>
76 to 100 | 76 to 100 | 76 to 100 | 51 to 75 | 76 to 100 | 76 to 100 |  | CO[C@H]1CC(Nc2nc(-c3nccn3C)nc3sc(-c4ccn(C(C)C)n4)c(C)c23)C[C@@H]1OC (racemic) [Compound 44, rac-N-((3S,4S)-3,4-Dimethoxycyclopentyl)-6-(1-isopropyl-1H-pyrazol-3-yl)-5-methyl-2-(1-methyl-1H-imidazol-2-yl)thieno[2,3-d]pyrimidin-4-amine] | <A>
51 to 75 | 51 to 75 | 51 to 75 | 51 to 75 | 76 to 100 | 76 to 100 |  | CO[C@H]1CC[C@@H](Nc2nc(-c3ccccn3)nc3sc(-c4ccn(C(C)C)n4)c(C)c23)C1 (racemic) [Compound 69, Rac-6-(1-isopropyl-1H-pyrazol-3-yl)-N-((1R,3S)-3-methoxycyclopentyl)-5-methyl-2-(pyridine-2-yl)thieno[2,3-d]pyrimidin-4-amine] | D (76-100% inhibition)
0 | 0 | 1 to 25 | 0 | 0 | 0 | > 10 | CO[C@H]1C[C@@H](Nc2nc(-c3nccn3C)nc3sc(-c4ccn(C(C)C)n4)c(C)c23)C1 [Compound 96, 6-(1-isopropyl-1H-pyrazol-3-yl)-N-((1s,3s)-3-methoxycyclobutyl)-5-methyl-2-(1-methyl-1H-imidazol-2-yl)thieno[2,3-d]pyrimidin-4-amine] | 0 (0% inhibition)

From patent US20230227466A1, “SUBSTITUTED THIENOPYRIMIDINES THAT INTERACT WITH THE RAS SUPERFAMILY FOR THE TREATMENT OF CANCERS, INFLAMMATORY DISEASES, RASOPATHIES, AND FIBROTIC DISEASE” (SHY Therapeutics, LLC, priority 2020, published 2023)
